Results from PMC4628560 (Nature cell biology, 2015).
Where two headings read alike, the source gives them in different places.

What was measured:
[1] = molecular target: T1, 6-phosphogluconate dehydrogenase (6PGD) (Homo sapiens, UniProt P52209); experiment: tryptophan fluorescence-based binding assay with purified human 6PGD
T1 sequence (P52209 1-483): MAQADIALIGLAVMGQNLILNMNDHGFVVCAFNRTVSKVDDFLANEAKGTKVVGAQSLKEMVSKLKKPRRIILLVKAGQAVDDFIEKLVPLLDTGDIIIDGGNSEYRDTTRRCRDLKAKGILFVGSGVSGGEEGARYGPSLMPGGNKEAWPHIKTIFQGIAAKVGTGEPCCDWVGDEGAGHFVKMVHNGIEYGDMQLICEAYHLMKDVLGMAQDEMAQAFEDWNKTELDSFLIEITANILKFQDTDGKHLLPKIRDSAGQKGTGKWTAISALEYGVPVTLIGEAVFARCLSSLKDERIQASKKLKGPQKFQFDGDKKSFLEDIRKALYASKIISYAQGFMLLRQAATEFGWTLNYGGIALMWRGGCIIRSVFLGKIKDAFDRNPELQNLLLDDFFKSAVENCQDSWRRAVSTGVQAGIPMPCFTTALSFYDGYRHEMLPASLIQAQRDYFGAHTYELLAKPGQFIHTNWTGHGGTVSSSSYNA

[2] = molecular target: T1, 6-phosphogluconate dehydrogenase (6PGD); experiment: as above; remark: listed apart in the source

**Q.** For COc1cc(O)c2c(c1)C(=O)c1cc(C)cc(O)c1C2=O [Physcion, 1,8-Dihydroxy-3-methoxy-6-methyl-anthraquinone], which Kd [1] is on record?
**A.** Its Kd is 26 µM.

**Q.** With COc1cccc2c1C(=O)c1c(O)cccc1C2=O [S3, 1-Hydroxy-8-methoxy-anthraquinon] as the compound, how does the Kd [2] read?
**A.** Its Kd is 17.1 µM.
